Active and inactive are the calls of the source. The rule behind the calls is not given here. Where a SMILES comes first, the peptide text is derived from it. The star is where a group is joined. Boc = CC(C)(C)OC(=O)*
Molecular target: DNA-directed RNA polymerase subunit beta (Escherichia coli (strain K12)) (UniProt P0A8V2)
Test: E. coli RNAP inhibitors, dose response, biochemical, confirmation (AID 826)
Details: E. coli RNA polymerase biochemical transcription assay

Sequence of DNA-directed RNA polymerase subunit beta (Escherichia coli (strain K12)) (P0A8V2 whole entry, looked up): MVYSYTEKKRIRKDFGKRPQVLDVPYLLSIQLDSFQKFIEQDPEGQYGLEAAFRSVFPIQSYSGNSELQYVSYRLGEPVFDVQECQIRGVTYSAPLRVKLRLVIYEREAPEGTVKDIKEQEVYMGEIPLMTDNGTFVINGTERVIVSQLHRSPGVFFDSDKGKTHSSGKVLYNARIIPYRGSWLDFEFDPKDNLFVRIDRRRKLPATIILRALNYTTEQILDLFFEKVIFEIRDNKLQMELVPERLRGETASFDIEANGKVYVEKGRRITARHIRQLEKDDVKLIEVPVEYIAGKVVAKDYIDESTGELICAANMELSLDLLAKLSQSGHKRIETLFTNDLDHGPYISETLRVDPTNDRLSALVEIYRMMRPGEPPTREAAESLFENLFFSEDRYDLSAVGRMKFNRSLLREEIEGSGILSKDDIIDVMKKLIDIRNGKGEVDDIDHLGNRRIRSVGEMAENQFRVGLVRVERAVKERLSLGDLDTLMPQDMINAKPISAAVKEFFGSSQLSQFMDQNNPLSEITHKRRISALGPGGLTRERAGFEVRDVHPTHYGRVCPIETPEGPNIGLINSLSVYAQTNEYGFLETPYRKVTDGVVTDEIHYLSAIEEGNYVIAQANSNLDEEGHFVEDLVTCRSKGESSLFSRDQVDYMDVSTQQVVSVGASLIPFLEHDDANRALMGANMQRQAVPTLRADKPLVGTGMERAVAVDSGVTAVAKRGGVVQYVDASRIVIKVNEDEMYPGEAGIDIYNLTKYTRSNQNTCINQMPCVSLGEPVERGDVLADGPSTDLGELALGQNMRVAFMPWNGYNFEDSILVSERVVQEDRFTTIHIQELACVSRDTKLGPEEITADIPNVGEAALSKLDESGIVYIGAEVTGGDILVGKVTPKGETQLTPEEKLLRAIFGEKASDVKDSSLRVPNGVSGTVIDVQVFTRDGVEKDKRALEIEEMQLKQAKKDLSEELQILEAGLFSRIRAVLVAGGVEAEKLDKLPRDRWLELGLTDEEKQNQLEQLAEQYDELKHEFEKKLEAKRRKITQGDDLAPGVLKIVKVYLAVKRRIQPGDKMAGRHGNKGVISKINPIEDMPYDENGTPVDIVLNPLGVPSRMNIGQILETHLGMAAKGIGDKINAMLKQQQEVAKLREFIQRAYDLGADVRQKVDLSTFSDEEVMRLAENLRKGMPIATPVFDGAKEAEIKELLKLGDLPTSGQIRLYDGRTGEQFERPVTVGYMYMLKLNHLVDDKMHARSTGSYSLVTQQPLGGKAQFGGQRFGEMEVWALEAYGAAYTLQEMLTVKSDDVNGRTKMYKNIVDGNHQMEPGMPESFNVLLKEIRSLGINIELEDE

**Q.** How did the IC50 turn out when `CC(C)(C)OC(=O)N1CCCC1C(=O)N1CCCC1C(=O)N1CCCC1C(=O)O` (stereo not drawn) (Boc-Pro-Pro-Pro-OH; configuration not given here) was run?
**A.** Its IC50 is > 50 µM (inactive).

**Q.** Which IC50 does the source give for `CC(=O)C1=C(C)Nc2cc(C(F)(F)F)ccc2S1` here?
**A.** Its IC50 is > 50 µM (inactive).

**Q.** With `COc1ccc(C2=NO[C@@H]3C(=O)N(c4c(C)cccc4C)C(=O)[C@H]23)cc1OC` as the compound, how does the IC50 read?
**A.** Its IC50 is > 50 µM (inactive).

**Q.** How did the IC50 turn out when `CCOC(=O)C1=C(c2ccccc2)OC(N)=C(C#N)C1C(C)C` (configuration not stated) was run?
**A.** Its IC50 is > 50 µM (inactive).

**Q.** `COCCN1C(=O)C(O)=C(C(C)=O)C1c1ccc(OC)c(OC)c1` (configuration not stated) was tested. Which IC50 did it give?
**A.** The IC50 was > 50 µM (inactive).

**Q.** For `CCCCn1c(O)c(C(CC)=NCCCN(C)C)c(=O)[nH]c1=O`, which IC50 is on record?
**A.** The IC50 was > 50 µM (inactive).

**Q.** For `O=C1N(O)C2(C=CCCC2)/C(=N\O)C12CCCCC2` (configuration not stated), which IC50 is on record?
**A.** Its IC50 is > 50 µM (inactive).

Source: PubChem BioAssay AID826 (PCMD, 2007)
